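Following 48 hours of exposure in 96-well plates, responses at five concentrations were used to interpolate endpoints linearly. GI50 marks 50% less growth.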 Activity calls are given as the source filed them. Rule as the data show it: active = GI50 up to about 1.1 µM and inactive = higher.
Assays:
Assay in all cases: inhibition of tumour cell growth, NCI panel, 48 h
NCI-H226 = tested on: NCI-H226
A498 = tested on: A498
DMS-273 = tested on: DMS-273
NCI-H23 = tested on: NCI-H23
DMS-114 = tested on: DMS-114
HCC 2998 = tested on: HCC 2998
NCI-H522 = tested on: NCI-H522
TK-10 = tested on: TK-10
DLD-1 = tested on: DLD-1
786-0 = tested on: 786-0
Malme-3M = tested on: Malme-3M
HOP-18 = tested on: HOP-18
HT-29 = tested on: HT-29
CCRF-CEM = tested on: CCRF-CEM
SNB-19 = tested on: SNB-19
EKVX = tested on: EKVX
OVCAR-4 = tested on: OVCAR-4
SF-539 = tested on: SF-539
SK-MEL-5 = tested on: SK-MEL-5
UACC-62 = tested on: UACC-62
LOX IMVI = tested on: LOX IMVI
ACHN = tested on: ACHN
M19-MEL = tested on: M19-MEL
LXFL 529 = tested on: LXFL 529
SK-OV-3 = tested on: SK-OV-3
COLO 205 = tested on: COLO 205
HOP-62 = tested on: HOP-62
SK-MEL-28 = tested on: SK-MEL-28
SN12C = tested on: SN12C
SF-295 = tested on: SF-295
HOP-92 = tested on: HOP-92
MOLT-4 = tested on: MOLT-4
UACC-257 = tested on: UACC-257
CAKI-1 = tested on: CAKI-1
KM-20L2 = tested on: KM-20L2
A549 = tested on: A549
SF-268 = tested on: SF-268
U-251 = tested on: U-251
RPMI-8226 = tested on: RPMI-8226
HCT-116 = tested on: HCT-116
HL-60 = tested on: HL-60
M14 = tested on: M14
SR = tested on: SR
IGROV-1 = tested on: IGROV-1
SW-620 = tested on: SW-620
K562 = tested on: K562
SNB-75 = tested on: SNB-75
OVCAR-8 = tested on: OVCAR-8
KM12 = tested on: KM12
OVCAR-5 = tested on: OVCAR-5
UO-31 = tested on: UO-31
XF498 = tested on: XF498
OVCAR-3 = tested on: OVCAR-3
SK-MEL-2 = tested on: SK-MEL-2
SNB-78 = tested on: SNB-78
MCF7 = tested on: MCF7
NCI-H460 = tested on: NCI-H460
NCI/ADR-RES = tested on: NCI/ADR-RES
HCT-15 = tested on: HCT-15

CC1[C@@H]2CC=C3[C@H]4CCC5Cc6nc7c(nc6C[C@@]5(C)C4CC(=O)[C@]32CO[C@]12OC(C)(C)CC2O)CC1CC[C@@H]2C3=C[C@H]4O[C@@]5(O[C@@](C)(CO)C[C@@H]5O)C(C)[C@@]4(O)[C@]3(C)[C@@H](O)CC2[C@]1(C)C7 (stereo partly drawn)
GI50 (NCI-H226): 0.00273 µM (active)
GI50 (A498): 0.00143 µM (active)
GI50 (DMS-273): 0.000105 µM (active)
GI50 (NCI-H23): 0.0055 µM (active)
GI50 (DMS-114): 0.000172 µM (active)
GI50 (HCC 2998): 0.0955 µM (active)
GI50 (NCI-H522): 0.00121 µM (active)
GI50 (TK-10): 0.034 µM (active)

CN(C)c1ccc(O[Si](Oc2ccc(N(C)C)cc2)(Oc2ccc(N(C)C)cc2)Oc2ccc(N(C)C)cc2)cc1
GI50 (DLD-1): > 100 µM (inactive)
GI50 (786-0): > 100 µM (inactive)
GI50 (NCI-H226): > 100 µM (inactive)
GI50 (A498): > 100 µM (inactive)
GI50 (Malme-3M): > 100 µM (inactive)
GI50 (HOP-18): > 100 µM (inactive)
GI50 (HT-29): > 100 µM (inactive)
GI50 (CCRF-CEM): 40.8 µM (inactive)
GI50 (SNB-19): > 100 µM (inactive)
GI50 (EKVX): > 100 µM (inactive)
GI50 (OVCAR-4): > 100 µM (inactive)
GI50 (SF-539): > 100 µM (inactive)
GI50 (SK-MEL-5): > 100 µM (inactive)
GI50 (UACC-62): > 100 µM (inactive)
GI50 (LOX IMVI): 79.1 µM (inactive)
GI50 (ACHN): > 100 µM (inactive)
GI50 (M19-MEL): > 100 µM (inactive)
GI50 (LXFL 529): 50.9 µM (inactive)
GI50 (SK-OV-3): > 100 µM (inactive)
GI50 (COLO 205): 52.7 µM (inactive)
GI50 (HOP-62): > 100 µM (inactive)
GI50 (SK-MEL-28): > 100 µM (inactive)
GI50 (SN12C): 96.8 µM (inactive)
GI50 (SF-295): 86.3 µM (inactive)
GI50 (NCI-H23): 99.5 µM (inactive)
GI50 (HOP-92): > 100 µM (inactive)
GI50 (MOLT-4): 98.2 µM (inactive)
GI50 (UACC-257): 85.1 µM (inactive)
GI50 (CAKI-1): > 100 µM (inactive)
GI50 (KM-20L2): > 100 µM (inactive)
GI50 (A549): > 100 µM (inactive)
GI50 (SF-268): > 100 µM (inactive)
GI50 (U-251): 89.3 µM (inactive)
GI50 (DMS-114): 46.5 µM (inactive)
GI50 (RPMI-8226): > 100 µM (inactive)
GI50 (HCT-116): > 100 µM (inactive)
GI50 (HL-60): 32.9 µM (inactive)
GI50 (M14): > 100 µM (inactive)
GI50 (SR): > 100 µM (inactive)
GI50 (IGROV-1): > 100 µM (inactive)
GI50 (SW-620): > 100 µM (inactive)
GI50 (K562): > 100 µM (inactive)
GI50 (HCC 2998): 79.6 µM (inactive)
GI50 (NCI-H522): 25.7 µM (inactive)
GI50 (SNB-75): > 100 µM (inactive)
GI50 (OVCAR-8): 52.8 µM (inactive)
GI50 (TK-10): > 100 µM (inactive)
GI50 (KM12): 71.6 µM (inactive)
GI50 (OVCAR-5): > 100 µM (inactive)
GI50 (UO-31): > 100 µM (inactive)
GI50 (XF498): 44.4 µM (inactive)
GI50 (OVCAR-3): 51.6 µM (inactive)

COc1cc(/C=C(/C#N)C(N)=O)ccc1O
GI50 (SK-MEL-2): > 70.8 µM (inactive)
GI50 (DLD-1): > 100 µM (inactive)
GI50 (SNB-78): > 100 µM (inactive)
GI50 (NCI-H226): > 88.9 µM (inactive)
GI50 (A498): > 63.2 µM (inactive)
GI50 (Malme-3M): 53.6 µM (inactive)
GI50 (HOP-18): > 40.7 µM (inactive)
GI50 (MCF7): > 100 µM (inactive)
GI50 (HT-29): > 100 µM (inactive)
GI50 (CCRF-CEM): > 100 µM (inactive)
GI50 (SNB-19): > 100 µM (inactive)
GI50 (EKVX): > 100 µM (inactive)
GI50 (OVCAR-4): > 100 µM (inactive)
GI50 (SF-539): > 100 µM (inactive)
GI50 (DMS-273): > 100 µM (inactive)
GI50 (SK-MEL-5): > 22.2 µM (inactive)
GI50 (UACC-62): > 100 µM (inactive)
GI50 (LOX IMVI): > 100 µM (inactive)
GI50 (M19-MEL): > 100 µM (inactive)
GI50 (SK-OV-3): > 100 µM (inactive)
GI50 (COLO 205): > 100 µM (inactive)
GI50 (HOP-62): > 100 µM (inactive)
GI50 (SK-MEL-28): > 100 µM (inactive)
GI50 (SN12C): > 100 µM (inactive)
GI50 (SF-295): > 100 µM (inactive)
GI50 (NCI-H23): > 100 µM (inactive)
GI50 (NCI-H460): > 100 µM (inactive)
GI50 (HOP-92): > 56.8 µM (inactive)
GI50 (MOLT-4): > 100 µM (inactive)
GI50 (UACC-257): > 100 µM (inactive)
GI50 (CAKI-1): > 100 µM (inactive)
GI50 (KM-20L2): > 100 µM (inactive)
GI50 (A549): > 100 µM (inactive)
GI50 (SF-268): > 100 µM (inactive)
GI50 (U-251): > 100 µM (inactive)
GI50 (DMS-114): > 100 µM (inactive)
GI50 (RPMI-8226): > 100 µM (inactive)
GI50 (HCT-116): > 100 µM (inactive)
GI50 (HL-60): > 100 µM (inactive)
GI50 (NCI/ADR-RES): > 100 µM (inactive)
GI50 (IGROV-1): > 100 µM (inactive)
GI50 (SW-620): > 100 µM (inactive)
GI50 (K562): > 100 µM (inactive)
GI50 (HCC 2998): > 60.5 µM (inactive)
GI50 (NCI-H522): > 100 µM (inactive)
GI50 (SNB-75): > 50.1 µM (inactive)
GI50 (OVCAR-8): > 100 µM (inactive)
GI50 (HCT-15): > 100 µM
GI50 (KM12): > 100 µM (inactive)
GI50 (OVCAR-5): > 100 µM (inactive)
GI50 (UO-31): > 41.5 µM (inactive)
GI50 (XF498): > 100 µM (inactive)
GI50 (OVCAR-3): > 100 µM (inactive)
